We go through twelve compounds from patent US8541449B2, “Substituted isoquinolines and isoquinolinones as Rho kinase inhibitors” (Sanofi, priority 2008, dated 2013).

Structures are written as SMILES. A value given as a limit tells only on which side of the number the result lay.

Holding throughout (type): biochemical
For experiment [1], the target named is T1, recombinant human PKA (Homo sapiens, UniProt P17612).
T1 construct: Active recombinant human PKA (residues 1-351, N-terminal His-tag); His-tag (N); purchased Invitrogen, Karlsruhe, Germany
As to the kind of experiment: Determination of Protein Kinase A inhibition (Caliper peptide phosphorylation assay). The conditions noted are these: recombinant human PKA versus ROCK II. On the procedure: (§1) Determination of Protein Kinase A and Protein Kinase G Inhibition
(§2) To measure PKA and PKG1-beta inhibition, IC50 values were determined according to the following protocol:
(§3) Active recombinant human PKG1-beta (full-length, with N-terminal His-tag) was purchased from Millipore GmbH, Schwalbach, Germany. Active recombinant human PKA (residues 1-351, N-terminal His-tag) was obtained from Invitrogen, Karlsruhe, Germany. The peptide substrate, Fluorescein-[…]-COOH, was obtained from JPT Peptide Technologies, Berlin, Germany. Adenosine-5′-triphosphate (ATP), bovine serum albumine (BSA), dimethylsulphoxide (DMSO), 4-(2-Hydroxyethyl)piperazine-1-ethanesulfonic acid (Hepes), Brij-35, dithiothreitol (DTT) and Pluronic F-68 were purchased from Sigma-Aldrich, Munich, Germany. Tris(hydroxymethyl)-aminomethane (Tris), magnesium chloride, NaOH, 1M HCl and EDTA were obtained from Merck Biosciences, Darmstadt, Germany. “Complete” protease inhibitor was from Roche Diagnostics, Mannheim, Germany.
(§4) Test compounds were diluted to the appropriate concentrations in buffer 1 (25 mM Tris-HCl, pH 7.4, 5 mM MgCl2, 2 mM DTT, 0.02% (w/v) BSA, 0.01% Pluronic F-68 and 3% DMSO). PKG1-beta and PKA were diluted to concentrations of 150 ng/ml and 30 ng/ml, respectively, in buffer 2. The peptide substrate and ATP were diluted to concentrations of 3 μM and 120 μM, respectively, in the buffer 2. Two μl of the compound solution were mixed with 2 μl of the diluted enzyme in a 384-well small volume microtiter plate (Greiner, Bio-One, Frickenhausen, Germany), and the kinase reaction was initiated by addition of 2 μl of the solution containing peptide substrate and ATP. After 60 min incubation at 32° C., the reaction was stopped by addition of 20 μl of a solution containing 100 mM Hepes-NaOH, pH 7.4, 0.015% (v/v) Brij-35, 45 mM EDTA and 0.227% chip coating reagent 1 (Caliper Lifescience Inc, Hopkinton, Mass.). Phosphorylation of the substrate peptide was then detected on a Caliper 3000 instrument essentially as described by Pommereau et al (J. Biomol. Screening 9(5), 409-416, 2004). Separation conditions were as follows: Pressure −1.3 psi, upstream voltage −1562 V, downstream voltage −500 V, sample sip time 200 ms. Positive controls (buffer 1 instead of compound) and negative controls (buffer 1 instead of compound and buffer 2 instead of kinase solution) were run in parallel on each plate. The following products/compounds were tested in said assay by using the respective form (salt or free base) obtained as in the examples described above and the following activities were measured.

Experiment [2] addresses T2, human recombinant ROCK II (Homo sapiens, UniProt O75116).
T2 construct: N-terminal His6-tagged recombinant human ROCK-II residues 11-552; His6 (N); purchased Millipore GmbH, Schwalbach, Germany
As to the kind of experiment: Determination of Rho kinase inhibition (Caliper peptide phosphorylation assay). The conditions noted are these: 60 min at 32° C., negative decadal logarithm of the IC50. On the procedure:
Determination of Rho Kinase Inhibition
To measure Rho-kinase inhibition, IC50 values were determined according to the following protocol:
Active human recombinant ROCK II (N-terminal His6-tagged recombinant human ROCK-II residues 11-552) was purchased from Millipore GmbH, Schwalbach, Germany. The peptide substrate, Fluorescein-[…]-COOH, was obtained from JPT Peptide Technologies, Berlin, Germany. Adenosine-5′-triphosphate (ATP), bovine serum albumine (BSA), dimethylsulphoxide (DMSO), 4-(2-Hydroxyethyl)piperazine-1-ethanesulfonic acid (Hepes), Brij-35, dithiothreitol (DTT) and Pluronic F-68 were purchased from Sigma-Aldrich, Munich, Germany. Tris(hydroxymethyl)-aminomethane (Tris), magnesium chloride, NaOH, 1M HCl and EDTA were obtained from Merck Biosciences, Darmstadt, Germany. “Complete” protease inhibitor was from Roche Diagnostics, Mannheim, Germany.
Test compounds were diluted to the appropriate concentrations in buffer 1 (25 mM Tris-HCl, pH 7.4, 5 mM MgCl2, 2 mM DTT, 0.02% (w/v) BSA, 0.01% Pluronic F-68 and 3% DMSO). The ROCK II enzyme was diluted to a concentration of 100 ng/mL in buffer 2 (25 mM Tris-HCl, pH 7.4, 5 mM MgCl2, 2 mM DTT and 0.02% (w/v) BSA). The peptide substrate and ATP were diluted to concentrations of 3 μM and 120 μM, respectively, in the buffer 2. Two μl of the compound solution were mixed with 2 μl of the diluted enzyme in a 384-well small volume microtiter plate (Greiner, Bio-One, Frickenhausen, Germany), and the kinase reaction was initiated by addition of 2 μl of the solution containing peptide substrate and ATP. After 60 min incubation at 32° C., the reaction was stopped by addition of 20 μl of a solution containing 100 mM Hepes-NaOH, pH 7.4, 0.015% (v/v) Brij-35, 45 mM EDTA and 0.227% chip coating reagent 1 (Caliper Lifescience Inc, Hopkinton, Mass.). Phosphorylation of the substrate peptide was then detected on a Caliper 3000 instrument essentially as described by Pommereau et al (J. Biomol. Screening 9(5), 409-416, 2004). Separation conditions were as follows: Pressure −1.3 psi, upstream voltage −1562 V, downstream voltage −500 V, sample sip time 200 ms. Positive controls (buffer 1 instead of compound) and negative controls (buffer 1 instead of compound and buffer 2 instead of ROCK II) were run in parallel on each plate.
The following products/compounds were tested in said assay by using the respective form (salt or free base) obtained as in the examples described above and the following activities were measured

The target in experiment [3] is T3, recombinant human PKG1-beta (Homo sapiens, UniProt Q13976).
T3 construct: Active recombinant human PKG1-beta (full-length, with N-terminal His-tag); His-tag (N); purchased Millipore GmbH, Schwalbach, Germany
T3 sequence (Q13976 1-686 isoform Q13976-2): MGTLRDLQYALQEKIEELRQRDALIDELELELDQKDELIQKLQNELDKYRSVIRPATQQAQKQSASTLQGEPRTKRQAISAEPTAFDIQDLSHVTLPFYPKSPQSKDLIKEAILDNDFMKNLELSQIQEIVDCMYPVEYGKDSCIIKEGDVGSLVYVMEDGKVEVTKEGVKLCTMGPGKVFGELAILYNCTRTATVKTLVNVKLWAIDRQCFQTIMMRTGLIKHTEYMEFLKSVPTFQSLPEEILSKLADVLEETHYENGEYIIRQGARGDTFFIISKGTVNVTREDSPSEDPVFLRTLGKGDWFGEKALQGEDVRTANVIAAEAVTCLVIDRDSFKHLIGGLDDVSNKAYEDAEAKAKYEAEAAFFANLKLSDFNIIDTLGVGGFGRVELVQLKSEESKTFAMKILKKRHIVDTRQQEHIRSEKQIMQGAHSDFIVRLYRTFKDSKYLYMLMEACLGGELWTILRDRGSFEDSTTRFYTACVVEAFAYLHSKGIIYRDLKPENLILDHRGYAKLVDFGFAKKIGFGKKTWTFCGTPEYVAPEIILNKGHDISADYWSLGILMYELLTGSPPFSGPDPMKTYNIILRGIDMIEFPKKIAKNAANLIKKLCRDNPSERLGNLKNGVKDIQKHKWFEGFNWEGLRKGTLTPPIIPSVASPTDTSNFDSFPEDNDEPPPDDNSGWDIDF
As to the kind of experiment: Determination of Protein Kinase G inhibition (Caliper peptide phosphorylation assay). The conditions noted are these: recombinant human PKG1-beta versus ROCK II. On the procedure: as §1, §2, §3, §4

T2 sequence (O75116 11-552): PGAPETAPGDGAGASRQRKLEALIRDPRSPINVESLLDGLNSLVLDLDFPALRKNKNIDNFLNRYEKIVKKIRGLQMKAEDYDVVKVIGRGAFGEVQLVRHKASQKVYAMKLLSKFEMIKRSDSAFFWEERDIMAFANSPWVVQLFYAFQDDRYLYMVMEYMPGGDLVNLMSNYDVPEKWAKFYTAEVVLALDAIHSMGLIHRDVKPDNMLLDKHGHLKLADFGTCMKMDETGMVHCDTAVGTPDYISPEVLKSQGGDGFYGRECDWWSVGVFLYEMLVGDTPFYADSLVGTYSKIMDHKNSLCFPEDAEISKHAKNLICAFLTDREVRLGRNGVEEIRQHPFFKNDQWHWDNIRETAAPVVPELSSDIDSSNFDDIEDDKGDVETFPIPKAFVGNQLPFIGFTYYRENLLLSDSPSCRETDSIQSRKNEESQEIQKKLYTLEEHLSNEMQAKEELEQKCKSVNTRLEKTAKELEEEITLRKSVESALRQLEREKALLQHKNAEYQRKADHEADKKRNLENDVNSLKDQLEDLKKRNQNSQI

As for `CCC(N)[C@]1(c2ccc(C#N)cc2)CC[C@H](Oc2cc3cc[nH]c(=O)c3cc2Cl)CC1` (stereo partly drawn) [Example 97, cis-4-[1-(1-Amino-propyl)-4-(7-chloro-1-oxo-1,2-dihydro-isoquinolin-6-yloxy)-cyclohexyl]benzonitrile], the “Selectivity against PKA” value in experiment [1] is recorded as over 1000. Besides, the pIC50 result in experiment [2] was “+++++++ (8.0≦pIC50)”. The “Selectivity against PKG” value in experiment [3] is reported as over 300.
Taken in the same sequence, the figures for `CCC(N)[C@]1(c2ccccn2)CC[C@H](Oc2cc3cc[nH]c(=O)c3cc2Cl)CC1` (stereo partly drawn) [Example 55, cis-6-[4-(1-Amino-propyl)-4-pyridin-2-yl-cyclohexyloxy]-7-chloro-2H-isoquinolin-1-one] were over 1000, “+++++++ (8.0≦pIC50)” and over 300.
Taken in the same sequence, the figures for `CCCC(N)[C@]1(c2ccc(F)cc2)CC[C@@H](Oc2cc3cc[nH]c(=O)c3cc2Cl)CC1` (stereo partly drawn) [Example 12, trans-6-[4-(1-Amino-butyl)-4-(4-fluoro-phenyl)-cyclohexyloxy]-7-chloro-2H-isoquinolin-1-one] were over 100, “+++++ (6.0≦pIC50<7.0)” and over 10.
Taken in the same sequence, the figures for `CC(C)(N)[C@]1(c2ccc(F)cc2)CC[C@@H](Oc2cc3cc[nH]c(=O)c3cc2Cl)CC1` [Example 22, trans-6-[4-(1-Amino-1-methyl-ethyl)-4-(4-fluoro-phenyl)-cyclohexyloxy]-7-chloro-2H-iso quinolin-1-one] were over 300, “++++++ (7.0≦pIC50<8.0)” and over 100.
As for `CCC(N)[C@]1(c2ccc(C(F)(F)F)cc2)CC[C@H](Oc2cc3cc[nH]c(=O)c3cc2Cl)CC1` (stereo partly drawn) [Example 8, cis-6-[4-(1-Amino-propyl)-4-(4-trifluoromethyl-phenyl)-cyclo-hexyloxy]-7-chloro-2H-isoquinolin-1-one], in experiment [1], the “Selectivity against PKA” value is over 1000. For the same compound, in experiment [2], the pIC50 result is given as “+++++++ (8.0≦pIC50)”. The “Selectivity against PKG” value in experiment [3] is on record as over 300.
The matching figures for `CCC(N)[C@]1(c2ccc(F)c(F)c2)CC[C@H](Oc2cc3cc[nH]c(=O)c3cc2Cl)CC1` (stereo partly drawn) [Example 59, cis-6-[4-(1-Amino-propyl)-4-(3,4-difluoro-phenyl)-cyclohexyloxy]-7-chloro-2H-isoquinolin-1-one]: over 1000, “+++++++ (8.0≦pIC50)” and over 300.
Taken in the same sequence, the figures for `CCC(N)C[C@]1(c2ccc(F)cc2)CC[C@H](Oc2cc3cc[nH]c(=O)c3cc2Cl)CC1` (stereo partly drawn) [Example 110, cis-6-[4-(2-Amino-butyl)-4-(4-fluoro-phenyl)-cyclohexyloxy]-7-chloro-2H-isoquinolin-1-one] were over 300, “++++++ (7.0≦pIC50<8.0)” and over 100.
The matching figures for `NC(C1CC1)[C@]1(c2ccc(F)cc2)CC[C@H](Oc2cc3cc[nH]c(=O)c3cc2Cl)CC1` (stereo partly drawn) [Example 82, cis-6-[4-(Amino-cyclopropyl-methyl)-4-(4-fluoro-phenyl)-cyclohexyloxy]-7-chloro-2H-isoquinolin-1-one]: over 1000, “+++++++ (8.0≦pIC50)” and over 1000.
On to `CCC(N)[C@]1(c2ccccc2)CC[C@H](Oc2cc3cc[nH]c(=O)c3cc2F)CC1` (stereo partly drawn) [Example 87, cis-6-[4-(1-Amino-propyl)-4-phenyl-cyclohexyloxy]-7-fluoro-2H-iso quinolin-1-one], for which, in experiment [1], the “Selectivity against PKA” value is over 1000. Besides, in experiment [2], the pIC50 result is on record as “++++++ (7.0≦pIC50<8.0)”. For the same compound, the “Selectivity against PKG” value in experiment [3] is on record as over 100.
For `CCC(N)C1CCC(Oc2cc3cc[nH]c(=O)c3cc2Cl)CC1` (single isomer, unassigned) [Example 130, 6-[4-(1-Amino-propyl)-cyclohexyloxy]-7-chloro-2H-isoquinolin-1-one], in experiment [1], the “Selectivity against PKA” value is over 300. The pIC50 entry in experiment [2] was “++++++ (7.0≦pIC50<8.0)”. Also, the “Selectivity against PKG” value in experiment [3] was over 10.
Taken in the same sequence, the figures for `CCC(N)[C@]1(c2cccc(C(F)(F)F)c2)CC[C@H](Oc2cc3cc[nH]c(=O)c3cc2C)CC1` (stereo partly drawn) [Example 86, cis-6-[4-(1-Amino-propyl)-4-(3-trifluoromethyl-phenyl)-cyclohexyloxy]-7-methyl-2H-iso quinolin-1-one] were over 10, “+++++ (6.0≦pIC50<7.0)” and over 10.
With `CCC(N)[C@]1(c2ccccc2Cl)CC[C@H](Oc2cc3cc[nH]c(=O)c3cc2Cl)CC1` (stereo partly drawn) [Example 10, cis-6-[4-(1-Amino-propyl)-4-(2-chloro-phenyl)-cyclohexyloxy]-7-chloro-2H-iso quinolin-1-one], in experiment [1], the “Selectivity against PKA” value was over 100. The pIC50 result in experiment [2] was “+++++++ (8.0≦pIC50)”. For the same compound, in experiment [3], the “Selectivity against PKG” value is on record as over 100.
